Data: US8604206B2, “Compositions for preventing and/or treating degenerative disorders of the central nervous system” (Amicus Therapeutics, Inc., priority 2009, dated 2013)

Key:
[1] = Blood brain barrier penetration, plasma and brain levels after oral administration; format: in vivo, mouse; conditions: mice, single 30 mg/kg (free base equivalent) p.o.
Description: For this purpose, 8-week old wild-type male mice (C57BL/6) were administered a single 30 mg/kg (free base equivalent) p.o. dose of reference or test compound by gavage (n=3 mice per time point). Dosing solutions were prepared in water. After dosing, mice were euthanized with CO2 at the following time points: 0-, 0.5-, 1-, and 4-hour post-dose. […] Similarly, brains were collected from each mouse. Plasma was derived by spinning whole blood at 2,700×g for 10 minutes at 4° C. followed by storage on dry ice. Whole brains were washed in cold PBS to remove contaminating blood, blotted dry, flash frozen on dry ice, and ultimately stored at −80° C. until analysis. To prepare brain samples for analysis, 50-100 mg of tissue was homogenized in […] of water/mg tissue. Samples were then clarified by centrifugation. Next, 25 μl of the brain homogenate supernatant or 25 μl of plasma were combined with 25 μl of acetonitrile:water (95/5). […] Samples were again clarified by centrifugation and 75 μl of the supernatant was combined with 75 μl of acetonitrile. Samples were then analyzed for compound levels by LC-MS/MS at PPD Inc. (3230 Deming Way, Middleton, Wis. 53562). In brief, a Thermo Betasil, Silica-100, 50×3 mm, 5μ column equilibrated with a mixture of mobile phase consisting of 5 mM ammonium formate and 0.05% formic acid in (A) 95:5 acetonitrile:water or (B) 70:20:10 methanol:water:acetonitrile was employed. Between 20 and 30 μl sample was injected for analysis. For calculating drug concentrations, raw data for plasma (ng/mL) and brain (ng/g) was converted to nM using the molecular weight of respective compounds and assuming 1 g of tissue is equivalent to 1 mL volume. Concentration as a function of time was plotted in GraphPad Prism version 4.02.

[2] = target: lysosomal GCase (Homo sapiens (Human), UniProt P04062); test: In situ lysosomal GCase inhibition and washout assay in fibroblasts from a normal subject; format: cell-based; conditions: for in situ washout from the lysosomal compartment compared to IFG-tartrate: compared to reference compound IFG-tartrate; for in situ washout: fibroblasts treated at IC90, then drug-free medium; for IC50: fibroblasts, 16-24 hours with compound, PFBFDβGlu substrate
Description: The effect of the novel compounds of the present invention on lysosomal GCase activity was assayed in situ using fibroblasts established from a normal subject. Cells seeded in 48-well plates were incubated with the indicated concentrations of compound for 16-24 hours. For the dose-response assays, cells were incubated with the in situ substrate 5-(pentafluorobenzoylamino)fluorescein di-β-D-glucopyranoside (PFBFDβGlu) for 1 hour and subsequently lysed to determine the extent of substrate hydrolysis in the presence of compound. […] Inhibition was determined as the ratio of activity in the presence of compound to that in the absence of compound. […] Cells were washed extensively and incubated in drug-free medium to allow net compound efflux from cells. Cells were then tested for lysosomal GCase activity at 2 hour intervals over a total period of 8 hours following compound removal. The increase in activity over time was fitted with a single exponential function to determine the compound's washout time.

[3] = target: GCase (Homo sapiens (Human), UniProt P04062); test: GCase activity enhancement (EC50, Emax) of Table 2B; format: cell-based; conditions: for increase in GCase activity compared to IFG-tartrate: compared to reference compound IFG-tartrate
[4] = target: GCase (Mus musculus, UniProt P17439); test: GCase enhancement in tissues of orally dosed mice; format: in vivo; conditions: 9 doses over 2 weeks; for GCase increase (fold): 24-hour washout; for GCase enhancement in brain and spleen: mice, p.o.
Description: The ability of orally administered test compounds ((3R,4R,5S)-5-(difluoromethyl)piperidine-3,4-diol, (3R,4R,5S)-5-(1-fluoroethyl)piperidine-3,4-diol, (3R,4R,5S)-5-((R)-1-fluoropropyl)piperidine-3,4-diol hydrochloride, or (3R,4R,5S)-5-benzylpiperidine-3,4-diol) to elevate GCase levels was assessed in mice. For this purpose, 8-week old wild-type male mice (C57BL/6) were administered a […] p.o. (gavage) dose of a compound of the present invention (i.e., (3R,4R,5S)-5-(difluoromethyl)piperidine-3,4-diol, (3R,4R,5S)-5-(1-fluoroethyl)piperidine-3,4-diol, (3R,4R,5S)-5-((R)-1-fluoropropyl)piperidine-3,4-diol hydrochloride, or (3R,4R,5S)-5-benzylpiperidine-3,4-diol). The dosing solutions were prepared in water. Compounds were administered over 2 weeks as follows: week 1, Mon-Fri (On), Sat-Sun (Off); week 2, Mon-Thu (On); necropsy on Friday. Thus, a total of 9 doses (dosing solutions prepared fresh every day) were given to each mouse, with a 24-hour washout between the last dose and necropsy.
(§1) Plasma was collected by spinning blood at 2700 g for 10 minutes at 4° C. Liver, spleen, lung, and brain tissues were removed, washed in cold PBS, blotted dry, flash frozen on dry ice, and stored at −80° C. until analysis. GCase levels were measured by homogenizing approximately 50 mg tissue in 500 μL McIlvane (MI) buffer (100 mM sodium citrate, 200 mM sodium phosphate dibasic, 0.25% sodium taurocholate, and 0.1% Triton X-100, pH 5.2) at pH 5.2 for 3-5 seconds on ice with a micro homogenizer. Homogenates were then incubated at room temperature without and with 2.5 mM conduritol-B-epoxide (CBE) for 30 min. Finally, 3.7 mM 4-methylumbeliferryl-β-glucoside (4-MUG) substrate was added and incubated at 37° C. for 60 min. […] Fluorescence was measured on a plate reader for 1 sec/well using 355 nm excitation and 460 nm emission. Total protein was determined in lysates using the MicroBCA kit according to the manufacturer's instructions. A 4-methylumbelliferone (4-MU) standard curve ranging from 1.0 nM to 50 μM was run in parallel for conversion of raw fluorescence data to absolute GCase activity (in the presence and absence of CBE) and expressed as nanomoles of 4-MU released per milligram of protein per hour (nmol/mg protein/hr). GCase levels and protein levels were calculated using Microsoft Excel (Redmond, Wash.) and GraphPad Prism version 4.02.

[5] = Compound concentration in tissue of mice of the GCase enhancement study; format: in vivo, mouse; conditions: 9 doses, 24-hour washout
Description: The dosing solutions were prepared in water. Compounds were administered over 2 weeks as follows: week 1, Mon-Fri (On), Sat-Sun (Off); week 2, Mon-Thu (On); necropsy on Friday. Thus, a total of 9 doses (dosing solutions prepared fresh every day) were given to each mouse, with a 24-hour washout between the last dose and necropsy.
as §1

Sequence of GCase (Mus musculus, UniProt P17439) (P17439 20-515 limits assumed): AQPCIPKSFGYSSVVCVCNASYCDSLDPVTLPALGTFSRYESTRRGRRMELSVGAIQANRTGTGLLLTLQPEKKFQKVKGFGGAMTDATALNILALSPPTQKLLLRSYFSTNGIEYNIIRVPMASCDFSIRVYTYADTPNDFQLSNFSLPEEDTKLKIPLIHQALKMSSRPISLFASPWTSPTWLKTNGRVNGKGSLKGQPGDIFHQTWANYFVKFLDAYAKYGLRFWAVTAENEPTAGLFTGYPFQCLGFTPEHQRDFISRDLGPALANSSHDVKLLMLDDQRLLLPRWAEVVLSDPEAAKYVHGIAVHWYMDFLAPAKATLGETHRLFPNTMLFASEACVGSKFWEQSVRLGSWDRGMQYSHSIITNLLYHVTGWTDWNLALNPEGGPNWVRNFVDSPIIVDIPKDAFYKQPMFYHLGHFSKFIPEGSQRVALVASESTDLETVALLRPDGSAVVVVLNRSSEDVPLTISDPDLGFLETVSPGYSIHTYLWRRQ
Sequence of lysosomal GCase (P04062 40-536): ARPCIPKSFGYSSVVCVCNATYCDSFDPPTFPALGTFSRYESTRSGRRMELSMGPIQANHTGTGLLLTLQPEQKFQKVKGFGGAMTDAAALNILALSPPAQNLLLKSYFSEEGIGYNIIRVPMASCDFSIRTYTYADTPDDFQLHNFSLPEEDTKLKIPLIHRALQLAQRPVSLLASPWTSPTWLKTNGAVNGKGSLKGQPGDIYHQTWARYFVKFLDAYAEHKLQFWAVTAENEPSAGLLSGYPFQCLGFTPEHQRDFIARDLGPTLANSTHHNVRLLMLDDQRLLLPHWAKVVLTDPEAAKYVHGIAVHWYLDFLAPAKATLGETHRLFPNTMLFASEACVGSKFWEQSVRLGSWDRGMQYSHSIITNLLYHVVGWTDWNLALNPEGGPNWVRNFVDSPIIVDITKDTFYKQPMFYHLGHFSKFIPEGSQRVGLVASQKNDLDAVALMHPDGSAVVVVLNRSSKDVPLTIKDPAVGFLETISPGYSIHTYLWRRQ
Sequence of GCase (Homo sapiens (Human), UniProt P04062) (P04062 40-536): as above

Row | SMILES | blood brain barrier crossing compared to IFG-tartrate [1] | levels detected in brain compared to IFG-tartrate [1] | inhibition of GCase activity [2] | in situ washout from the lysosomal compartment compared to IFG-tartrate [2] | in situ washout [2] [h] | IC50 [2] [nM] | EC50 [3] [nM] | increase in GCase activity compared to IFG-tartrate [3] | GCase increase (fold) ([4]; brain, 10 mg/kg FBE p.o.) | GCase increase (fold) ([4]; brain, 100 mg/kg FBE p.o.) | GCase enhancement in brain and spleen [4] | GCase increase (fold) ([4]; spleen, 10 mg/kg FBE p.o.) | GCase increase (fold) ([4]; spleen, 100 mg/kg FBE p.o.) | Compound concentration in tissue ([5]; brain, 10 mg/kg FBE p.o.) | Compound concentration in tissue ([5]; brain, 100 mg/kg FBE p.o.) [nmol/kg] | Compound concentration in tissue ([5]; spleen, 10 mg/kg FBE p.o.) [nmol/kg] | Compound concentration in tissue ([5]; spleen, 100 mg/kg FBE p.o.) [nmol/kg]
1 | O[C@@H]1[C@@H](Cc2ccccc2)CNC[C@H]1O [(3R,4R,5S)-5-benzyl-piperidine-3,4-diol] | crossed the blood brain barrier more readily as compared to IFG-tartrate | higher levels | inhibited GCase activity | considerably faster than reference compound IFG-tartrate | 1.2 ± 0.13 | 1300 ± 323 | 180 ± 10 | enhanced enzyme activity to the same maximum level as reference compound IFG-tartrate at much lower concentration | 1.2 | 1.4 | significant GCase enhancement in brain and spleen | 1.0 | 1.2 | – | – | – | –
2 | CC[C@@H](F)[C@H]1CNC[C@@H](O)[C@@H]1O.Cl [(3R,4R,5S)-5-((R)-1-fluoropropyl)-piperidine-3,4-diol hydrochloride] | crossed the blood brain barrier more readily as compared to IFG-tartrate | higher levels | inhibited GCase activity | – | – | 972 ± 201 | 86 ± 2 | enhanced enzyme activity to the same maximum level as reference compound IFG-tartrate at much lower concentration | 0.9 | 1.1 | – | 0.7 | 0.7 | BLQ(2) (BLQ < 2.2 nmol/kg) | 38 | 21 | 60
3 | Cl.O[C@H]1[C@H](O)CNC[C@@H]1C(F)F [Cmpd 6, (3R,4R,5S)-5-(Difluoromethyl)piperidine 3,4-diol Hydrochloride] | crossed the blood brain barrier more readily as compared to IFG-tartrate | higher levels | inhibited GCase activity | considerably faster than reference compound IFG-tartrate | 2.1 ± 0.30 | – | – | enhanced enzyme activity to the same maximum level as reference compound IFG-tartrate at much lower concentration | – | – | significant GCase enhancement in brain and spleen | – | – | 55 nmol/kg | 301 | 100 | 435
